Laboratory results: patent US6914045B2, “Glycopeptide antibiotics” (Wyeth Holdings Corporation, priority 2001, dated 2005)
Converted amounts (≈) assume the structure as drawn.

Assays:
Experiment in all cases: in vitro antibacterial evaluation, MIC by broth dilution
Type in all cases: cell-based
[1] = system: Streptococcus sp.; details: broth dilution, 18 hours at 35° C.
Outline: (§1)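 Broth dilution per NCCLS standard M7-A2 in Muller-Hinton II […], with an inoculum of 5×10^5 CFU/mL and antibiotic spanning 64-0.06 μg/mL. The MIC is the lowest concentration that inhibits growth of the organism.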

[2] = system: Enterococcus sp.; details: broth dilution, 18 hours at 35° C.
Outline: as §1

[3] = system: Escherichia coli; details: 18 hours at 35° C., strain ATCC 25922
Outline: as §1

[4] = system: Staphylococcus sp.; details: broth dilution, 18 hours at 35° C.
Outline: as §1

MIC Streptococcus agalactiae (GC 4564) ([1]; Streptococcus agalactiae (GC 4564)): <0.5 µg/mL
MIC Streptococcus pneumoniae (GC 4565) ([1]; Streptococcus pneumoniae (GC 4565)): <0.5 µg/mL
MIC Streptococcus pyogenes (ID-3187) ([1]; Streptococcus pyogenes (ID-3187)): <0.5 µg/mL
MIC Streptococcus agalactiae (GC 4564) ([1]; strain GC 4564): <0.5 µg/mL
MIC Streptococcus pneumoniae (GC 4565) ([1]; strain GC 4565): <0.5 µg/mL
MIC Streptococcus pyogenes (ID-3187) ([1]; strain ID-3187): <0.5 µg/mL
MIC Enterococcus avium (GC 4558) ([2]; Enterococcus avium (GC 4558)): 2 µg/mL (≈ 1.45 µM)
MIC Enterococcus faecalis (ATCC 29212) ([2]; Enterococcus faecalis (ATCC 29212)): 2 µg/mL (≈ 1.45 µM)
MIC Enterococcus faecalis (GC 2242) ([2]; Enterococcus faecalis (GC 2242)): 2 µg/mL (≈ 1.45 µM)
MIC Enterococcus faecalis (GC 4552) ([2]; Enterococcus faecalis (GC 4552)): 2 µg/mL (≈ 1.45 µM)
MIC Enterococcus faecalis (GC 4553) ([2]; Enterococcus faecalis (GC 4553)): 2 µg/mL (≈ 1.45 µM)
MIC Enterococcus faecalis (GC 4554) ([2]; Enterococcus faecalis (GC 4554)): 2 µg/mL (≈ 1.45 µM)
MIC Enterococcus faecium (GC 2243) ([2]; Enterococcus faecium (GC 2243)): 2 µg/mL (≈ 1.45 µM)
MIC Enterococcus faecium (GC 4556) ([2]; Enterococcus faecium (GC 4556)): 2 µg/mL (≈ 1.45 µM)
MIC Enterococcus faecium (GC 4557) ([2]; Enterococcus faecium (GC 4557)): 1 µg/mL (≈ 0.726 µM)
MIC Enterococcus faecalis (ATCC 29212) ([2]; strain ATCC 29212): 2 µg/mL (≈ 1.45 µM)
MIC Enterococcus faecalis (GC 2242) ([2]; strain GC 2242): 2 µg/mL (≈ 1.45 µM)
MIC Enterococcus faecium (GC 2243) ([2]; strain GC 2243): 2 µg/mL (≈ 1.45 µM)
MIC Enterococcus faecalis (GC 4552) ([2]; strain GC 4552): 2 µg/mL (≈ 1.45 µM)
MIC Enterococcus faecalis (GC 4553) ([2]; strain GC 4553): 2 µg/mL (≈ 1.45 µM)
MIC Enterococcus faecalis (GC 4554) ([2]; strain GC 4554): 2 µg/mL (≈ 1.45 µM)
MIC Enterococcus faecium (GC 4556) ([2]; strain GC 4556): 2 µg/mL (≈ 1.45 µM)
MIC Enterococcus faecium (GC 4557) ([2]; strain GC 4557): 1 µg/mL (≈ 0.726 µM)
MIC Enterococcus avium (GC 4558) ([2]; strain GC 4558): 2 µg/mL (≈ 1.45 µM)
MIC Escherichia coli (ATCC 25922) [3]: 32 µg/mL (≈ 23.2 µM)
MIC Coagulase Negative Staphylococcus (GC 4547) [4]: 1 µg/mL (≈ 0.726 µM)
MIC Coagulase Negative Staphylococcus (GC 4548) [4]: <0.5 µg/mL
MIC Coagulase Negative Staphylococcus (GC 4549) [4]: 1 µg/mL (≈ 0.726 µM)
MIC Coagulase Negative Staphylococcus (GC 4551) [4]: 1 µg/mL (≈ 0.726 µM)
MIC Coagulase Negative Staphylococcus (ID-3941) [4]: 1 µg/mL (≈ 0.726 µM)
MIC Staphylococcus aureus (ATCC 29213) [4]: 1 µg/mL (≈ 0.726 µM)
MIC Staphylococcus aureus (GC 1131) [4]: 1 µg/mL (≈ 0.726 µM)
MIC Staphylococcus aureus (GC 4541) [4]: 1 µg/mL (≈ 0.726 µM)
MIC Staphylococcus aureus (GC 4542) [4]: 1 µg/mL (≈ 0.726 µM)
MIC Staphylococcus aureus (GC 4544) [4]: 1 µg/mL (≈ 0.726 µM)
MIC Staphylococcus aureus (GC 4545) [4]: 1 µg/mL (≈ 0.726 µM)
MIC Staphylococcus aureus-SMITH (GC 4543) [4]: 1 µg/mL (≈ 0.726 µM)
MIC Staphylococcus aureus (GC 1131) ([4]; inoculum 5×10^5 CFU/mL, strain GC 1131): 1 µg/mL (≈ 0.726 µM)
MIC Staphylococcus aureus (ATCC 29213) ([4]; strain ATCC 29213): 1 µg/mL (≈ 0.726 µM)
MIC Staphylococcus aureus (GC 4541) ([4]; strain GC 4541): 1 µg/mL (≈ 0.726 µM)
MIC Staphylococcus aureus (GC 4542) ([4]; strain GC 4542): 1 µg/mL (≈ 0.726 µM)
MIC Staphylococcus aureus (GC 4544) ([4]; strain GC 4544): 1 µg/mL (≈ 0.726 µM)
MIC Staphylococcus aureus (GC 4545) ([4]; strain GC 4545): 1 µg/mL (≈ 0.726 µM)
MIC Coagulase Negative Staphylococcus (GC 4547) ([4]; strain GC 4547): 1 µg/mL (≈ 0.726 µM)
MIC Coagulase Negative Staphylococcus (GC 4548) ([4]; strain GC 4548): <0.5 µg/mL
MIC Coagulase Negative Staphylococcus (GC 4549) ([4]; strain GC 4549): 1 µg/mL (≈ 0.726 µM)
MIC Coagulase Negative Staphylococcus (GC 4551) ([4]; strain GC 4551): 1 µg/mL (≈ 0.726 µM)
MIC Coagulase Negative Staphylococcus (ID-3941) ([4]; strain ID-3941): 1 µg/mL (≈ 0.726 µM)
MIC Staphylococcus aureus-SMITH (GC 4543) ([4]; strain SMITH GC 4543): 1 µg/mL (≈ 0.726 µM)
SMILES: CCCCCC1OCC2OC(OC3C(CO)OC(Oc4ccc(CC5NC(=O)C(C(C)c6ccccc6)NC(=O)CNC(=O)C(CO)NC(=O)C(C(O)C6CNC(=N)N6C6OC(CO)C(O)C(O)C6O)NC(=O)C(C(O)C6CNC(=N)N6)NC5=O)cc4)C(O)C3O)C(O)C(O)C2O1 (stereo not drawn) [Example 108, Cyclo[glycyl-β-methylphenylalanyl-O-[4-O-(4,6-O-hexylidenehexopyranosyl)hexopyranosyl]-tyrosyl-3-(2-iminoimidazolidin-4-yl)seryl-3-(3-hexopyranosyl-2-iminoimidazolidin-4-yl)-serylseryl]]
MIC Staphylococcus haemolyticus (GC 4546) [4]: 1 µg/mL (≈ 0.726 µM)
MIC Staphylococcus haemolyticus (GC 4546) ([4]; strain GC 4546): 1 µg/mL (≈ 0.726 µM)
